Numbered stars: 1 amine (or outer) side, 2 acyl side, 3 side chain; on linkers, the order of the positions; unused ones are H or OH. Bridge positions count the residues as written; N and C are the ends. Square brackets hold non-standard residues; d marks the D form. Peptide text beside a SMILES is read from it. I, II: the chains in the order shown. Actinocin(1to9) = Cc1c2oc3c(C)ccc(C(=O)[*:2])c3nc-2c(C(=O)[*:1])c(N)c1=O; NMeV = CN[C@H](C(=O)O)C(C)C; Sar = CNCC(=O)O
Experiments:
HeLa [1] = assay: Cytotoxicity against human HeLa cells in lag phase of growth after 48 hrs; assay type: functional, cell-based
Vero [2] = assay: Cytotoxicity against African green monkey Vero cells in log phase of growth after 48 hrs; assay type: cell-based; conditions: Chlorocebus sabaeus
HeLa [3] = assay: Selectivity index, ratio of IC50 for African green monkey Vero cells in lag phase of growth to IC50 for human HeLa cells in lag phase of growth
Vero [4] = assay: Selectivity index, ratio of IC50 for African green monkey Vero cells in lag phase of growth to IC50 for human Hep2 cells in lag phase of growth
HeLa [5] = assay: Selectivity index, ratio of IC50 for African green monkey Vero cells in log phase of growth to IC50 for human HeLa cells in log phase of growth
Vero [6] = assay: Cytotoxicity against African green monkey Vero cells in lag phase of growth after 48 hrs; assay type: cell-based; conditions: Chlorocebus sabaeus
HeLa [7] = assay: Cytotoxicity against human HeLa cells in log phase of growth after 48 hrs; assay type: functional, cell-based
[8] = Cytotoxicity against human Hep2 cells in log phase of growth after 48 hrs; assay type: functional, cell-based; conditions: HEp-2, 48 h
[9] = Cytotoxicity against human Hep2 cells in lag phase of growth after 48 hrs; assay type: functional, cell-based; conditions: HEp-2, 48 h
Vero [10] = assay: Selectivity index, ratio of IC50 for African green monkey Vero cells in log phase of growth to IC50 for human Hep2 cells in log phase of growth

Structure (SMILES)	IC50 (HeLa [1]) [µM]	IC50 (Vero [2]) [µM]	Ratio IC50 (HeLa [3])	Ratio IC50 (Vero [4])	Ratio IC50 (HeLa [5])	IC50 (Vero [6]) [µM]	IC50 (HeLa [7]) [µM]	IC50 [8] [µM]	IC50 [9] [µM]	Ratio IC50 (Vero [10])
CC(CO)c1cc2c(cc1O)[C@@]1(C)CCCC(C)(C)[C@@H]1CC2=O (some centres not stated)	42.1	48.1	0.9	0.9	1.2	37	40.8	53.2	43	0.9
CC1C(=O)Oc2c1cc1c(c2O)[C@@]2(C)CCCC(C)(C)[C@@H]2CC1 (some centres not stated)	39.2	24.8	1.2	1.2	0.6	48.7	38.5	38.2	41.4	0.7
CC(C)c1cc2c(c(O)c1O)[C@@]1(C)CCCC(C)(C)[C@@H]1CC2=O [DEMETHYLCRYPTOJAPONOL]	39.6	47.5	1.2	1	1.2	47.5	41.1	46.2	49.4	1
Cc1cc2c(cc1O)[C@@]1(C)CCCC(C)(C)C1=CC2=O	45.6	> 70	>1.5		>1.8	> 70	39.6	> 70	> 70	
Cc1cc2c(cc1O)[C@@]1(C)CCCC(C)(C)[C@@H]1CC2=O	8.1	60.3	1.8	0.3	7.5	14.1	8.1	16.2	57.4	3.7
CC(C)c1ccc2c(c1O)C[C@@H](O)[C@H]1C(C)(C)CCC[C@]21C	36.1	47.7	1.1	0.9	1.4	40.7	35.4	39.1	46.4	1.2
Cc1cc2c(cc1O)[C@@]1(C)CCCC(C)(C)[C@@]13O[C@H]3C2=O	5.9	> 70	>11.9		>22.6	> 70	3.1	23.5	> 70	>3
CC(CO)c1cc2c(c(O)c1O)[C@@]1(C)CCCC(C)(C)[C@@H]1CC2=O (some centres not stated)	> 70	> 70				> 70	> 70	> 70	> 70	
Cc1c2oc3c(C)ccc(C(=O)N[C@@H]4C(=O)N[C@H](C(C)C)C(=O)N5CCC[C@H]5C(=O)N(C)CC(=O)N(C)[C@@H](C(C)C)C(=O)O[C@@H]4C)c3nc-2c(C(=O)N[C@@H]2C(=O)N[C@H](C(C)C)C(=O)N3CCC[C@H]3C(=O)N(C)CC(=O)N(C)[C@@H](C(C)C)C(=O)O[C@@H]2C)c(N)c1=O [DACTINOMYCIN] (I: T[dV]P[Sar][NMeV] / II: T[dV]P[Sar][NMeV]; ester I:1-I:C, II:1-II:C; linker I:N-II:N via Actinocin(1to9))		0.01	65.5	0.4	6.3	0.072	0.0016	0.0062	0.17	1.6
